Reference: patent US7375096B1, “Method of preparing a supramolecular complex containing a therapeutic agent and a multi-dimensional polymer network” (California Institute of Technology, priority 1998, dated 2008)

What was measured:
[1] = system: DNA; assay: Pentalysine DNA binding with crosslinker DTBP and reducing agent TCEP (agarose gel)
Experimental: Pentalysine was added to DNA for 15 minutes. Crosslinker DTBP was then added to the solution mixture for over 60 minutes. TCEP was added and an agarose gel was run after 30 minutes. […] Thus, crosslinking with DTBP increased the affinity of pentalysine to DNA.

[2] = system: BHK-21 cells
Experimental: BHK-21 cells were plated in 24 well plates at a cell density of 60,000 cells/well 24 hours before transfection. […] Media solution containing the DNA/polymer complexes was added to cultured cells and replaced with fresh media after 24 hours of incubation at 37° C. The cells were lysed 48 hours after transfection. […] Cell lysate was also used to determine cell viability by the Lowry protein assay.

Row | Substance | binding to DNA [1] | toxicity (cell viability, Lowry protein assay) [2]
1 | Pentalysine | not strong enough to bind to the DNA | 
2 | β-Cyclodextrin(cystamine)-DMS copolymer [copolymer 15] |  | No toxicity was observed
